# Assay results as given in patent US9695155B2, “Herbicidal substituted pyrimidinyloxy benzene compounds” (E. I. DU PONT DE NEMOURS AND COMPANY, priority 2013, dated 2017).
# Legend:
# blackgrass [1] = assay: Test D postemergence; type: in vivo, Alopecurus myosuroides; conditions: Alopecurus myosuroides, post-emergence, Postemergence, scale 0 to 100 (0 no effect, 100 complete control), read-out: Plant response rating, Blackgrass; for pest or weed control at 62 g/ha: 62 g ai/ha; for pest or weed control at 16 g/ha: 16 g ai/ha; for pest or weed control at 31 g/ha: 31 g ai/ha; for pest or weed control at 125 g/ha: 125 g ai/ha
# Outline: (§1)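 Values are 0–100 visual control ratings (0 none, 100 complete) given 7–21 days after application. Soil for preemergence was silt loam; postemergence plants stood 2–18 cm tall.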
# wild radish = assay: Test D postemergence; type: in vivo, Raphanus raphanistrum; conditions: Raphanus raphanistrum, post-emergence; for pest or weed control at 16 g/ha: 16 g ai/ha, scale 0-100, read-out: Plant response rating, Radish, Wild; for pest or weed control at 31 g/ha: 31 g ai/ha; for pest or weed control at 31 g/ha / pest or weed control at 62 g/ha / pest or weed control at 125 g/ha: scale 0 to 100 (0 no effect, 100 complete control), read-out: Plant response rating, Radish, Wild; for pest or weed control at 62 g/ha: 62 g ai/ha; for pest or weed control at 125 g/ha: 125 g ai/ha
# Outline: as §1
# chickweed = assay: Test D postemergence; type: in vivo, Stellaria media; conditions: Stellaria media, post-emergence; for pest or weed control at 16 g/ha: 16 g ai/ha, scale 0-100, read-out: Plant response rating, Chickweed; for pest or weed control at 31 g/ha: 31 g ai/ha; for pest or weed control at 31 g/ha / pest or weed control at 62 g/ha / pest or weed control at 125 g/ha: scale 0 to 100 (0 no effect, 100 complete control), read-out: Plant response rating, Chickweed; for pest or weed control at 62 g/ha: 62 g ai/ha; for pest or weed control at 125 g/ha: 125 g ai/ha
# Outline: as §1
# blackgrass [2] = assay: Test D preemergence; type: in vivo, Alopecurus myosuroides; conditions: Alopecurus myosuroides, pre-emergence; for pest or weed control at 16 g/ha: 16 g ai/ha, scale 0 (no effect) to 100 (complete control), read-out: Plant response rating, Blackgrass; for pest or weed control at 31 g/ha: 31 g ai/ha; for pest or weed control at 31 g/ha / pest or weed control at 62 g/ha / pest or weed control at 125 g/ha: scale 0-100, read-out: Plant response rating, Blackgrass; for pest or weed control at 62 g/ha: 62 g ai/ha; for pest or weed control at 125 g/ha: 125 g ai/ha
# Outline: as §1
# canarygrass = assay: Test D postemergence; type: in vivo, Phalaris minor; conditions: Phalaris minor, post-emergence; for pest or weed control at 16 g/ha: 16 g ai/ha, scale 0-100, read-out: Plant response rating, Canarygrass; for pest or weed control at 31 g/ha: 31 g ai/ha; for pest or weed control at 31 g/ha / pest or weed control at 62 g/ha / pest or weed control at 125 g/ha: scale 0 to 100 (0 no effect, 100 complete control), read-out: Plant response rating, Canarygrass; for pest or weed control at 62 g/ha: 62 g ai/ha; for pest or weed control at 125 g/ha: 125 g ai/ha
# Outline: as §1
# pigweed [3] = assay: Test D preemergence; type: in vivo, Amaranthus retroflexus; conditions: Amaranthus retroflexus, pre-emergence; for pest or weed control at 16 g/ha: 16 g ai/ha; for pest or weed control at 16 g/ha / pest or weed control at 31 g/ha: scale 0 (no effect) to 100 (complete control), read-out: Plant response rating, Pigweed; for pest or weed control at 31 g/ha: 31 g ai/ha; for pest or weed control at 62 g/ha: 62 g ai/ha; for pest or weed control at 62 g/ha / pest or weed control at 125 g/ha: scale 0-100, read-out: Plant response rating, Pigweed; for pest or weed control at 125 g/ha: 125 g ai/ha
# Outline: as §1
# oilseed rape = assay: Test D preemergence; type: in vivo, Brassica napus; conditions: Brassica napus, pre-emergence; for plant injury at 16 g/ha: 16 g ai/ha, scale 0 (no effect) to 100 (complete control), read-out: Plant response rating, Oilseed Rape; for plant injury at 31 g/ha: 31 g ai/ha; for plant injury at 31 g/ha / plant injury at 62 g/ha / plant injury at 125 g/ha: scale 0-100, read-out: Plant response rating, Oilseed Rape; for plant injury at 62 g/ha: 62 g ai/ha; for plant injury at 125 g/ha: 125 g ai/ha
# Outline: as §1
# speedwell = assay: Test D preemergence; type: in vivo, Veronica persica; conditions: Veronica persica, pre-emergence; for pest or weed control at 16 g/ha: 16 g ai/ha; for pest or weed control at 16 g/ha / pest or weed control at 31 g/ha: scale 0 (no effect) to 100 (complete control), read-out: Plant response rating, Speedwell; for pest or weed control at 31 g/ha: 31 g ai/ha; for pest or weed control at 62 g/ha: 62 g ai/ha; for pest or weed control at 62 g/ha / pest or weed control at 125 g/ha: scale 0-100, read-out: Plant response rating, Speedwell; for pest or weed control at 125 g/ha: 125 g ai/ha
# Outline: as §1
# lambsquarters = assay: Test D preemergence; type: in vivo, Chenopodium album; conditions: Chenopodium album, pre-emergence; for pest or weed control at 16 g/ha: 16 g ai/ha, scale 0 (no effect) to 100 (complete control), read-out: Plant response rating, Lambsquarters; for pest or weed control at 31 g/ha: 31 g ai/ha; for pest or weed control at 31 g/ha / pest or weed control at 62 g/ha / pest or weed control at 125 g/ha: scale 0-100, read-out: Plant response rating, Lambsquarters; for pest or weed control at 62 g/ha: 62 g ai/ha; for pest or weed control at 125 g/ha: 125 g ai/ha
# Outline: as §1
# Italian ryegrass = assay: Test D preemergence; type: in vivo, Lolium multiflorum; conditions: Lolium multiflorum, pre-emergence; for pest or weed control at 16 g/ha: 16 g ai/ha; for pest or weed control at 16 g/ha / pest or weed control at 31 g/ha: scale 0 (no effect) to 100 (complete control), read-out: Plant response rating, Ryegrass, Italian; for pest or weed control at 31 g/ha: 31 g ai/ha; for pest or weed control at 62 g/ha: 62 g ai/ha; for pest or weed control at 62 g/ha / pest or weed control at 125 g/ha: scale 0-100, read-out: Plant response rating, Ryegrass, Italian; for pest or weed control at 125 g/ha: 125 g ai/ha
# Outline: as §1
# wild oat = assay: Test D postemergence; type: in vivo, Avena fatua; conditions: Avena fatua, post-emergence; for pest or weed control at 16 g/ha: 16 g ai/ha, scale 0-100, read-out: Plant response rating, Oat, Wild; for pest or weed control at 31 g/ha: 31 g ai/ha; for pest or weed control at 31 g/ha / pest or weed control at 62 g/ha / pest or weed control at 125 g/ha: scale 0 to 100 (0 no effect, 100 complete control), read-out: Plant response rating, Oat, Wild; for pest or weed control at 62 g/ha: 62 g ai/ha; for pest or weed control at 125 g/ha: 125 g ai/ha
# Outline: as §1
# pigweed [4] = assay: Test D postemergence; type: in vivo, Amaranthus retroflexus; conditions: Amaranthus retroflexus, post-emergence; for pest or weed control at 16 g/ha: 16 g ai/ha, scale 0-100, read-out: Plant response rating, Pigweed; for pest or weed control at 31 g/ha: 31 g ai/ha; for pest or weed control at 31 g/ha / pest or weed control at 62 g/ha / pest or weed control at 125 g/ha: scale 0 to 100 (0 no effect, 100 complete control), read-out: Plant response rating, Pigweed; for pest or weed control at 62 g/ha: 62 g ai/ha; for pest or weed control at 125 g/ha: 125 g ai/ha
# Outline: as §1
compound,measurement,setting,value
"FC(F)(F)COc1cnn(-c2ccccc2Oc2ncc(Cl)cn2)c1 [Compound 138, 5-chloro-2-[2-[4-(2,2,2-trifluoroethoxy)-1H-pyrazol-1-yl]phenoxy]pyrimidine]",pest or weed control at 62 g/ha,blackgrass [1],10%
same,pest or weed control at 16 g/ha,blackgrass [1],5%
same,pest or weed control at 31 g/ha,blackgrass [1],5%
same,pest or weed control at 125 g/ha,blackgrass [1],15%
same,pest or weed control at 16 g/ha,wild radish,60%
same,pest or weed control at 31 g/ha,wild radish,65%
same,pest or weed control at 62 g/ha,wild radish,80%
same,pest or weed control at 125 g/ha,wild radish,90%
same,pest or weed control at 16 g/ha,chickweed,20%
same,pest or weed control at 31 g/ha,chickweed,20%
same,pest or weed control at 62 g/ha,chickweed,40%
same,pest or weed control at 125 g/ha,chickweed,55%
same,pest or weed control at 16 g/ha,blackgrass [2],0%
same,pest or weed control at 31 g/ha,blackgrass [2],0%
same,pest or weed control at 62 g/ha,blackgrass [2],25%
same,pest or weed control at 125 g/ha,blackgrass [2],30%
same,pest or weed control at 16 g/ha,canarygrass,5%
same,pest or weed control at 31 g/ha,canarygrass,10%
same,pest or weed control at 62 g/ha,canarygrass,10%
same,pest or weed control at 125 g/ha,canarygrass,15%
same,pest or weed control at 16 g/ha,pigweed [3],0%
same,pest or weed control at 31 g/ha,pigweed [3],25%
same,pest or weed control at 62 g/ha,pigweed [3],100%
same,pest or weed control at 125 g/ha,pigweed [3],100%
same,plant injury at 16 g/ha,oilseed rape,35%
same,plant injury at 31 g/ha,oilseed rape,30%
same,plant injury at 62 g/ha,oilseed rape,50%
same,plant injury at 125 g/ha,oilseed rape,65%
same,pest or weed control at 16 g/ha,speedwell,70%
same,pest or weed control at 31 g/ha,speedwell,100%
same,pest or weed control at 62 g/ha,speedwell,100%
same,pest or weed control at 125 g/ha,speedwell,100%
same,pest or weed control at 16 g/ha,lambsquarters,45%
same,pest or weed control at 31 g/ha,lambsquarters,10%
same,pest or weed control at 62 g/ha,lambsquarters,60%
same,pest or weed control at 125 g/ha,lambsquarters,100%
same,pest or weed control at 16 g/ha,Italian ryegrass,0%
same,pest or weed control at 31 g/ha,Italian ryegrass,0%
same,pest or weed control at 62 g/ha,Italian ryegrass,0%
same,pest or weed control at 125 g/ha,Italian ryegrass,10%
same,pest or weed control at 16 g/ha,wild oat,5%
same,pest or weed control at 31 g/ha,wild oat,0%
same,pest or weed control at 62 g/ha,wild oat,5%
same,pest or weed control at 125 g/ha,wild oat,10%
same,pest or weed control at 16 g/ha,pigweed [4],65%
same,pest or weed control at 31 g/ha,pigweed [4],70%
same,pest or weed control at 62 g/ha,pigweed [4],90%
same,pest or weed control at 125 g/ha,pigweed [4],90%
"FC(F)(F)c1cn(-c2ccccc2Oc2ncc(Cl)cn2)nn1 [Compound 166, 5-chloro-2-[2-[4-(trifluoromethyl)-1H-1,2,3-triazol-1-yl]phenoxy]pyrimidine]",pest or weed control at 62 g/ha,blackgrass [1],40%
same,pest or weed control at 16 g/ha,blackgrass [1],15%
same,pest or weed control at 31 g/ha,blackgrass [1],20%
same,pest or weed control at 125 g/ha,blackgrass [1],65%
same,pest or weed control at 16 g/ha,wild radish,70%
same,pest or weed control at 31 g/ha,wild radish,70%
same,pest or weed control at 62 g/ha,wild radish,95%
same,pest or weed control at 125 g/ha,wild radish,95%
same,pest or weed control at 16 g/ha,chickweed,55%
same,pest or weed control at 31 g/ha,chickweed,65%
same,pest or weed control at 62 g/ha,chickweed,80%
same,pest or weed control at 125 g/ha,chickweed,90%
same,pest or weed control at 16 g/ha,blackgrass [2],10%
same,pest or weed control at 31 g/ha,blackgrass [2],55%
same,pest or weed control at 62 g/ha,blackgrass [2],70%
same,pest or weed control at 125 g/ha,blackgrass [2],95%
same,pest or weed control at 16 g/ha,canarygrass,20%
same,pest or weed control at 31 g/ha,canarygrass,35%
same,pest or weed control at 62 g/ha,canarygrass,50%
same,pest or weed control at 125 g/ha,canarygrass,55%
same,pest or weed control at 16 g/ha,pigweed [3],100%
same,pest or weed control at 31 g/ha,pigweed [3],100%
same,pest or weed control at 62 g/ha,pigweed [3],100%
same,pest or weed control at 125 g/ha,pigweed [3],100%
same,plant injury at 16 g/ha,oilseed rape,35%
same,plant injury at 31 g/ha,oilseed rape,50%
same,plant injury at 62 g/ha,oilseed rape,100%
same,plant injury at 125 g/ha,oilseed rape,100%
same,pest or weed control at 16 g/ha,speedwell,100%
same,pest or weed control at 31 g/ha,speedwell,100%
same,pest or weed control at 62 g/ha,speedwell,100%
same,pest or weed control at 125 g/ha,speedwell,100%
same,pest or weed control at 16 g/ha,lambsquarters,85%
same,pest or weed control at 31 g/ha,lambsquarters,95%
same,pest or weed control at 62 g/ha,lambsquarters,100%
same,pest or weed control at 125 g/ha,lambsquarters,100%
same,pest or weed control at 16 g/ha,Italian ryegrass,20%
same,pest or weed control at 31 g/ha,Italian ryegrass,40%
same,pest or weed control at 62 g/ha,Italian ryegrass,60%
same,pest or weed control at 125 g/ha,Italian ryegrass,85%
same,pest or weed control at 16 g/ha,wild oat,25%
same,pest or weed control at 31 g/ha,wild oat,30%
same,pest or weed control at 62 g/ha,wild oat,35%
same,pest or weed control at 125 g/ha,wild oat,40%
same,pest or weed control at 16 g/ha,pigweed [4],80%
same,pest or weed control at 31 g/ha,pigweed [4],85%
same,pest or weed control at 62 g/ha,pigweed [4],95%
same,pest or weed control at 125 g/ha,pigweed [4],95%
